target: human TRPA1 (Homo sapiens (Human), UniProt O75762); test: FLIPR assay of inhibitory activity on human TRPA1 (calcium ion flux fluorescence); assay type: cell-based; conditions: HEK293 cells stably expressing human TRPA1
Description: 1. FLIPR Assay of Inhibitory Activity on Human TRPA1
A calcium ion flux fluorescence method (FLIPR assay) was adopted to measure the inhibitory activity of compounds on human TRPA1 channel. The literature reports of Lee and Chen et al. may be referred to for the method [Lee et al. Br J Pharmacol 2008, 153 (8): 1739-1749] [Chen et al. Pain 2011, 152(5):1165-72].
A HEK293 recombinant cell strain stably expressing human TRPA1 (Creative Biogene, NY) was cultured in DMEM (Thermo Fisher Scientific, Shanghai) medium (containing 10% calf serum, 5 μg/ml Blasticidin and 400 ug/ml G418). The incubator was under a condition of 37° C. and air humidity with 5% CO2.
TRPA1 cells were seeded in a 96-well analysis plate at a density of 75,000 cells per well (100 ul/well), and cultured overnight in an incubator at 37° C. and 5% CO2. On the second day, incubation was continued overnight under the same condition to induce the expression of TRPA1 after the culture medium in each well was poured out and a fresh supplement with the same culture medium containing 0.1 μg/ml Tetracycline was added. The further next day, the culture medium was pour out, a DMEM culture solution (also containing 2.5 mM Probenicid) containing 5 μM Fluo-4 AM (Molecular Probes) was added to each well, and incubation was conducted at 37° C. for 1 hour.
The compound was dissolved in 100% DMSO to prepare a 30 mM stock solution which was stored at −20° C. On the day of use, the compound stock solution was thawed at room temperature. Each compound was subjected to 1:5 serial dilution using DMSO medium at a starting concentration of 30 μM with 9 concentration points on a 96-well plate. Each compound was diluted in duplicate for testing. Ruthenium Red was used as the positive control compound and the same dilution was carried out at a starting concentration of 3 μM.
The cell analysis plate was placed in an FLIPR instrument […], and the compound in the compound plate was added to the corresponding hole on the cell analysis plate (First addition) via an automatic program, and the calcium ion fluorescence signal was recorded to determine whether the compound had agonistic activity. After 10 minutes, CaCl2 (Second addition) was added a final concentration of 3 mM to each well to stimulate intracellular calcium flux signals. Ca^++-dependent fluorescence signal was monitored continuously at 538 nm wavelength to analyze the inhibitory activity of the compounds.
The data was collected and analyzed using a FLIPR program. The fluorescence peak value was used to evaluate the inhibitory (or agonistic) activity of the compounds at each concentration. EXCEL and PRISM programs were used to calculate the IC50 value of the compounds.

Chain of human TRPA1 (O75762 whole entry): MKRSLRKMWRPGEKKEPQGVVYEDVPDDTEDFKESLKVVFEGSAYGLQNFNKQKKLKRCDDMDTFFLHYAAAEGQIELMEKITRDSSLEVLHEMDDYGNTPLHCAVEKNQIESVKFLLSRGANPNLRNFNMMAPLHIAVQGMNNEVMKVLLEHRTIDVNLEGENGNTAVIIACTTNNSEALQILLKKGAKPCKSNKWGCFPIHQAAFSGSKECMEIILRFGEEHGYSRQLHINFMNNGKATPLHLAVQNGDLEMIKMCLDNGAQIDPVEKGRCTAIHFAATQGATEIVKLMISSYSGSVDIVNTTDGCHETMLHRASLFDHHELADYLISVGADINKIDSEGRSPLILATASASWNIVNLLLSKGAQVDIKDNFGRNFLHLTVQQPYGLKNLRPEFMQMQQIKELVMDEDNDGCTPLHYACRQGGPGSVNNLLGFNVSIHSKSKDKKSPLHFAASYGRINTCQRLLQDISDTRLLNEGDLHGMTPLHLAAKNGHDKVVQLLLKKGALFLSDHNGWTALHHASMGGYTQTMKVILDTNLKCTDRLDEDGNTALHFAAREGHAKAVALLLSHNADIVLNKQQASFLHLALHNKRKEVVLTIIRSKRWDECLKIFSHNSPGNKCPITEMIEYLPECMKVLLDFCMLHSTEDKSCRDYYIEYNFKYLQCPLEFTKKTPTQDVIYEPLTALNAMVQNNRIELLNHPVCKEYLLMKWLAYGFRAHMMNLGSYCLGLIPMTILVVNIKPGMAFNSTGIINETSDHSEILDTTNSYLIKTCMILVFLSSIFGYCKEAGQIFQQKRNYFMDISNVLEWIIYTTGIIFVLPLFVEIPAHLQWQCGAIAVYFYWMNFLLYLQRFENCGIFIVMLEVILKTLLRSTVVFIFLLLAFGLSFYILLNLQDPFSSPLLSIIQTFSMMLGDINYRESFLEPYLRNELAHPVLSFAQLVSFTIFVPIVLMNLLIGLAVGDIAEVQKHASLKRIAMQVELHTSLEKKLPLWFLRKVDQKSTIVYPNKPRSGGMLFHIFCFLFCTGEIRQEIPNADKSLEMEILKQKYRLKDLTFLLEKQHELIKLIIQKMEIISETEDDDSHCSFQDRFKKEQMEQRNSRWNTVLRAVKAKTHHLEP

Compound | IC50 [nM]
Cn1cc(NC2(C(=O)N3CCC(C(C)(C)C)CC3)CCCC2)nc1C#N [Compound 42, 4-((1-(4-(tert-butyl)piperidine-1-carbonyl)cyclopentyl)amino) -1-methyl-1H-imidazole-2-carbonitrile] | 4650
N#Cc1ccc(NC2(C(=O)N3CCN(c4ccc(C(F)(F)F)nn4)CC3)CCCC2)cc1 [Compound 19, 4-((1-(4-(6-(trifluoromethyl)pyridazin-3-yl)piperazine-1-carbonyl)cyclopentyl)amino) benzonitrile] | 87
N#Cc1ccc(NC2(C(=O)N3CCN(c4nccc(C(F)(F)F)n4)CC3)CCCC2)cc1 [Compound 18, 4-((1-(4-(4-(trifluoromethyl)pyrimidin-2-yl)piperazine-1-carbonyl)cyclopentyl)amino) benzonitrile] | 38
CC(C)(C)N1CCN(C(=O)C2Cc3cc(C#N)ccc3O2)CC1 (stereo not shown) [Compound 80, 2-(4-(tert-butyl)piperazine-1-carbonyl)-2,3-2H-5-cyano-benzofuran] | 68
N#Cc1ccc(NC2(C(=O)N3CCN(c4ncc(C(F)(F)F)cn4)CC3)CCCC2)cc1 [Compound 17, 4-((1-(4-(5-(trifluoromethyl)pyrimidin-2-yl)piperazine-1-carbonyl)cyclopentyl)amino)ben zonitrile] | 18
N#Cc1ccc(NC2(C(=O)N3C[C@H]4CC[C@@H](C3)N4c3cccc(C(F)(F)F)n3)CCCC2)cc1 [Compound 28, 4-((1-(8-(6-(trifluoromethyl)pyridin-2-yl)-3,8-diazabicyclo[3.2.1]octane-3-carbonyl)cyclopentyl)amino)benzonitrile] | 15
N#Cc1ccc(NC2(C(=O)N3CCN(c4ccc(C(F)(F)F)s4)CC3)CCCC2)cc1 [Compound 24, 4-((1-(4-(5-(trifluoromethyl)thien-2-yl)piperazine-1-carbonyl)cyclopentyl)amino)benzonitrile] | 576
N#Cc1ccc(NC2(C(=O)N3CCN(c4cccc(C(F)(F)F)n4)CC3)CCC2)cc1 [Compound 13, 4-((1-(4-(6-(trifluoromethyl)pyridin-2-yl)piperazine-1-carbonyl)cyclobutyl)amino)benzo nitrile] | 378
C#Cc1ccc(NC2(C(=O)N3CCC(C(C)(C)C)CC3)CCCC2)cc1 [Compound 36, 4-((1-(4-(tert-butyl)piperidine-1-carbonyl)cyclopentyl)amino)phenylacetylene] | 1250
N#Cc1ccc(NC2(C(=O)N3CCC4(CCCC4)CC3)CCCC2)cc1 [Compound 34, 4-((1-(8-aza-spiro[4.5]decane-8-carbonyl)cyclopentyl)amino)benzonitrile] | 287
N#Cc1ccc(OC2(C(=O)N3CCN(c4ccc(C(F)(F)F)nn4)CC3)CCCC2)cc1Cl [Compound 60, 2-chloro-4-((1-(4-(6-(trifluoromethyl)pyridazin-3-yl)piperazine-1-carbonyl)cyclopentyl)oxy)benzonitrile] | 847
CC(C)(C)N1CCN(C(=O)C2(Sc3ccc(C#N)cc3)CCCC2)CC1 [Compound 66, 4-((1-(4-(tert-butyl)piperazine-1-carbonyl)cyclopentyl)sul-fanyl)benzonitrile] | 105
CC(C)(C)C1CCN(C(=O)C2(Nc3ncc(C#N)s3)CCCC2)CC1 [Compound 40, 2-((1-(4-(tert-butyl)piperidine-1-carbonyl)cyclopentyl)amino)thiazole-5-carbonitrile] | 950
CC(C)(C)N1CCN(C(=O)C2(Oc3ccc(C#N)cc3)CCCC2)CC1 [Compound 57, 4-((1-(4-(tert-butyl)piperazine-1-carbonyl)cyclopentyl)oxy) benzonitrile] | 51
Cc1cccc(N2CCN(C(=O)C3(Nc4ccc(C#N)cc4)CCCC3)CC2)n1 [Compound 15, 4-((1-(4-(6-methylpyridin-2-yl)piperazine-1-carbonyl)cyclopentyl)amino)benzonitrile] | 23
CC(C)(C)C(Oc1ccc(C#N)cc1)C(=O)N1CCN(c2cccc(C(F)(F)F)n2)CC1 (stereo not shown) [Compound 51] | 182

Compound | IC50 [nM]
N#Cc1ccc2c(c1)CC(C(=O)N1CCN(c3nccc(C(F)(F)F)n3)CC1)N2 (stereo not shown) [Compound 69, 2-(4-(4-(trifluoromethyl)pyrimidin-2-yl)piperazine-1-carbonyl)-5-cyanoindoline] | 386
N#Cc1ccc(NC2(C(=O)N3CCN(c4cccc(C(F)(F)F)n4)CC3)CC2)cc1 [Compound 12, 4-((1-(4-(6-(trifluoromethyl)pyridin-2-yl)piperazine-1-carbonyl)cyclopropyl)amino)ben zonitrile] | 6230
N#Cc1ccc(OC(C(=O)N2CCN(c3ccc(C(F)(F)F)nn3)CC2)c2ccccc2)cc1 (stereo not shown) [Compound 63] | 560
N#Cc1ccc(NC2(C(=O)N3CCN(c4ncc(C(F)(F)F)s4)CC3)CCCC2)cc1 [Compound 25, 4-((1-(4-(5-(trifluoromethyl)thiazol-2-yl)piperazine-1-carbonyl)cyclopentyl)amino)benzonitrile] | 876
N#Cc1ccc2[nH]c(C(=O)N3CCN(c4ccc(C(F)(F)F)cn4)CC3)cc2c1 [Compound 72, 2-(4-(5-(trifluoromethyl)pyridin-2-yl)piperazine-1-carbonyl)-1H-5-cyanoindole] | 971
N#Cc1ccc2c(c1)CC(C(=O)N1CCN(c3cccc(C(F)(F)F)n3)CC1)O2 (stereo not shown) [Compound 73, 2-(4-(6-(trifluoromethyl)pyridin-2-yl)piperazine-1-carbonyl)-2,3-2H-5-cyanobenzofuran] | 261
CCC(CC)(Nc1ccc(C#N)cc1)C(=O)N1CCN(c2cccc(C(F)(F)F)c2)CC1 [Compound 8] | 568
4-((3-(4-(3-trifluoromethyl) phenyl)piperazine-1-carbonyl) propane-2-yl)amino)benzo- nitrile [Compound 9] | 5670
Cc1cccc(N2CCN(C(=O)C3(Oc4ccc(C#N)cc4)CCCC3)CC2)c1 [Compound 48, 4-((1-(4-(m-methylphenyl)piperazine-1-carbonyl)cyclopentyl)oxy)benzonitrile] | 65
N#Cc1ccc2c(c1)CC(C(=O)N1CCN(c3cccc(C(F)(F)F)c3)CC1)N2 (stereo not shown) [Compound 70, 2-(4-(3-(trifluoromethyl)phenyl)piperazine-1-carbonyl)-5-cyanoindoline] | 92
Cc1cccc(N2CCN(C(=O)C3Cc4cc(C#N)ccc4O3)CC2)n1 (stereo not shown) [Compound 75] | 285
CC(C)(C)C1CCN(C(=O)C2(Oc3ccc(C#N)cc3)CCCC2)CC1 [Compound 56, 4-((1-(4-(tert-butyl)piperidine-1-carbonyl)cyclopentyl)oxy) benzonitrile] | 76
Cc1cccc(N2CCN(C(=O)C3(Nc4ccc(C#N)cc4)CCCC3)CC2)c1 [Compound 7] | 64
N#Cc1ccc2[nH]c(C(=O)N3CCN(c4cccc(C(F)(F)F)n4)CC3)cc2c1 [Compound 71, 2-(4-(6-(trifluoromethyl)pyridin-2-yl)piperazine-1-carbonyl)-1H-5-cyanoindole] | 866
COc1cc(Cl)ccc1N1CCN(C(=O)C2(Nc3ccc(C#N)cc3)CCCC2)CC1 [Compound 6, 4-((1-(4-(4-chloro-2-methoxyphenyl)piperazine-1-carbonyl)cyclopentyl)amino)benzo-nitrile] | 35
